# Results reported in patent publication US7129238B2, “Mandelic acid derivatives” (Hoffmann-La Roche Inc., priority 2002, dated 2006).
# Structures can show the parent of a compound that is named as a salt.
# Biological target: T1, factor VIIa/tissue factor complex (Homo sapiens, UniProt P08709)
# T1 construct: 9 nM of soluble factor VIIa
# Assay: inhibition of the amidolytic activity of factor VIIa/tissue factor complex (chromogenic peptide substrate)
# Type: biochemical
# Settings: soluble factor VIIa, substrate Chromozym-tPA, pH 7.5, room temperature
# Procedure: The measurements were carried out by an automated robotic assay on microtitre plates at room temperature. To this end, 100 μL of a solution of 26 nM of tissue factor, 9 nM of soluble factor VIIa and 8 mM of calcium chloride were added to 25 μL of a solution of the inhibitor in a buffer [pH 7.5, 100 mM, comprising 0.14M NaCl, 0.1M N-(2-hydroxyethyl)piperazine-N′-(2-ethanesulphonic acid) (HEPES), 0.5 mg/l of fatty-acid-free BSA (bovine serum albumin) and 0.05% NaN3] in each well of the plate. After an incubation time of 15 minutes the reaction was started by the addition of 50 μl of chromogenic substrate Chromozym-tPA (3.5 mM, MeSO2-D-Phe-Gly-Arg-paranitroanilide) and the hydrolysis of the substrate was followed spectrophotometrically on a kinetic microtitre plate reader over 10 minutes. Using the plot of the inhibition curves, the Ki values were determined according to the method described in Biochem. J. 55, 1953, 170–171.
# T1 sequence (P08709 213-466 limits assumed): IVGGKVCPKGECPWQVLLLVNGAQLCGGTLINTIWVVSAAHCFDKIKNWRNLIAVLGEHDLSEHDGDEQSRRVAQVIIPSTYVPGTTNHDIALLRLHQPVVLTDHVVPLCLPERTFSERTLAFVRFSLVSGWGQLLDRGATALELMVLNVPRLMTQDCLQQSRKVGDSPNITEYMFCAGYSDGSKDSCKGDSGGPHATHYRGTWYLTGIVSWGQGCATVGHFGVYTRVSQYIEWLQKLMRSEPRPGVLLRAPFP
# T1 sequence (P08709 61-212 limits assumed): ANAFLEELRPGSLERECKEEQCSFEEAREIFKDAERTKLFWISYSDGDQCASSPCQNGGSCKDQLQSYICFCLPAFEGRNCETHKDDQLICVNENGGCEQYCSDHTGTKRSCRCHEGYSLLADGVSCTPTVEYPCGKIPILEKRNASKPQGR
# T1 sequence (P13726 33-295 partner): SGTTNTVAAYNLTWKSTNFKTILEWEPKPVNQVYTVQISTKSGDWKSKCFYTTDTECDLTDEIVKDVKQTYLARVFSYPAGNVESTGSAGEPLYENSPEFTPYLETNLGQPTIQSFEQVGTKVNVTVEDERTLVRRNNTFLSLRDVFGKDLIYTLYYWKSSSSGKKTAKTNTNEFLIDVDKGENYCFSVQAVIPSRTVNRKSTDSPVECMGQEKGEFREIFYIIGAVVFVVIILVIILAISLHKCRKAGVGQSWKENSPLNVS
row,Compound,Ki [µM]
1,"COc1cc(F)c(C(OC)C(=O)NCc2ccc(C(=N)N)cc2)cc1OC (racemic) [Example 24.3, (RS)-N-(4-carbamimidoyl-benzyl)-2-(2-fluoro-4,5-dimethoxy-phenyl)-2-methoxy-acetamide hydrochloride]",2.21
2,"CCOc1ccc(C(OC)C(=O)NCc2ccc(C(=N)N)cc2)c(F)c1OCC (racemic) [Example 33.3, (RS)-N-(4-carbamimidoyl-benzyl)-2-(3,4-diethoxy-2-fluoro-phenyl)-2-methoxy-acetamide hydrochloride]",0.49
3,"COc1ccc2cc(C(OC)C(=O)NCc3ccc(C(=N)N)cc3)ccc2c1 (racemic) [Example 53.3, (RS)-N-(4-carbamimidoyl-benzyl)-2-methoxy-2-(6-methoxy-naphthalen-2-yl)-acetamide hydrochloride]",2.26
4,"COC(C(=O)NCc1ccc(C(=N)N)cc1)c1ccc(OCCc2ccc(F)cc2)cc1F (racemic) [Example 72.2, (RS)-N-(4-carbamimidoyl-benzyl)-2-{2-fluoro-4-[2-(4-fluoro-phenyl)-ethoxy]-phenyl}-2-methoxy-acetamide hydrochloride]",2.1
5,"CCOC(C(=O)NCc1ccc(C(=N)N)cc1OCC(N)=O)c1c(F)cc(OC)cc1F (racemic) [Example 126.3, (RS)-N-(4-carbamimidoyl-2-carbamoylmethoxy-benzyl)-2-(2,6-difluoro-4-methoxy-phenyl)-2-ethoxy-acetamide hydrochloride]",0.02
6,"CCOC(C(=O)NCc1ccc(C(=N)N)cc1OCC(=O)NCCOC)c1c(F)cc(OC)cc1F (racemic) [Example 129, (RS)-N-{4-Carbamimidoyl-2-[(2-methoxy-ethylcarbamoyl)-methoxy]-benzyl}-2-(2,6-difluoro-4-methoxy-phenyl)-2-ethoxy-acetamide hydrochloride]",0.021
7,"COc1cc(F)c(C(OC)C(=O)NCc2ccc(C(=N)N)cc2OCc2ccccn2)c(F)c1 (racemic) [Example 141, (RS)-N-[4-carbamimidoyl-2-(pyridin-2-ylmethoxy)-benzyl]-2-(2,6-difluoro-4-methoxy-phenyl)-2-methoxy-acetamide hydrochloride]",0.044
8,"CCOC(C(=O)NCc1ccc(C(=N)N)cc1)c1c(F)cc(-c2cnc(N)nc2)cc1F (racemic) [Example 266, (RS)-2-[4-(2-Amino-pyrimidin-5-yl)-2,6-difluoro-phenyl]-N-(4-carbamimidoyl-benzyl)-2-ethoxy-acetamide hydrochloride]",0.242
9,"CCOC(C(=O)NCc1ccc(C(=N)N)cc1)c1c(F)cc(-c2cccnc2)cc1F (racemic) [Example 267, (RS)-N-(4-Carbamimidoyl-benzyl)-2-(2,6-difluoro-4-pyridin-3-yl-phenyl)-2-ethoxy-acetamide hydrochloridr]",0.371
10,"CCOC(C(=O)NCc1ccc(C(=N)N)cc1)c1c(F)cc(-c2ccc(N)cn2)cc1F (racemic) [Example 269, (RS)-2-[4-(5-Amino-pyridin-2-yl)-2,6-difluoro-phenyl]-N-(4-carbamimidoyl-benzyl)-2-ethoxy-acetamide hydrochloride]",0.32
11,"CCOC(C(=O)NCc1ccc(C(=N)N)cc1)c1c(F)cc(-c2ccc(N)nc2)cc1F (racemic) [Example 271, (RS)-(2-[4-(6-Amino-pyridin-3-yl)-2,6-difluoro-phenyl]-N-(4-carbamimidoyl-benzyl)-2-ethoxy-acetamide hydrochloride]",0.154
12,"CCOC(C(=O)NCc1ccc(C(=N)N)cc1)c1c(F)cc(OCc2ccccn2)cc1F (racemic) [Example 294.2, (RS)-N-(4-carbamimidoyl-benzyl)-2-[2,6-difluoro-4-(pyridin-2-ylmethoxy)-phenyl]-2-ethoxy-acetamide hydrochloride]",0.586
13,"CCOC(C(=O)NCc1ccc(C(=N)N)cc1NCc1ccccc1)c1ccc(OC)cc1F (racemic) [Example 323, (RS)-N-(2-Benzylamino-4-carbamimidoyl-benzyl)-2-ethoxy-2-(2-fluoro-4-methoxy-phenyl)-acetamide acetate]",0.065
14,"CCOC(C(=O)NCc1ccc(C(=N)N)cc1NCC(=O)O)c1ccc(OC)cc1F (racemic) [Example 329, (RS)-(5-carbamimidoyl-2-j [2-ethoxy-2-(2-fluoro-4-methoxy-phenyl)-acetylamino]-methyl)-phenylamino)-acetic acid acetate]",0.121
15,"CCOC(C(=O)NCc1c(F)cc(C(=N)N)cc1F)c1c(F)cc(-c2ccc(N)nc2)cc1F (racemic) [Example 336.2, (RS)-2-[4-(6-amino-pyridin-3-yl)-2,6-difluoro-phenyl]-N-(4-carbamimidoyl-2,6-difluoro-benzyl)-2-ethoxy-acetamide acetate]",0.598
16,"(RS)-(4-carbamimidoyl-2-carbamoylmethoxy-benzyl)-2-[2,6-difluoro-4-(pyridin-2-ylmethoxy)-phenyl]-2-ethoxy-acetamide hydrochloride [Example 335.5]",0.017
17,(RS)-{4-Carbamimidoyl-2-[(pyridin-2-ylmethyl)-amino]-benzyl}-2-ethoxy-2-(2-fluoro-4-methoxy-phenyl)-acetamide hydrochloride [Example 325],0.077
